Results on 18 compounds are retold here after patent publication US10781204B2, “TYK2 inhibitors and uses thereof” (Nimbus Lakshmi, Inc., priority 2015, dated 2020).

pEC50, pKi: −log10 of the molar value.

The subject of assay [1] is JAK2-pSTAT5 (GM-CSF induced pSTAT5). Put plainly: GM-CSF induced pSTAT5 in human PBMC. It is filed as cell-based. To be noted: 5 ng/mL GM-CSF. The method in brief: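 Thawed human PBMC, 200,000 per well in serum-containing medium, were preincubated 1 hr at 37 C with compound in 0.1% DMSO. GM-CSF at 5 ng/mL final was added for 20 minutes, then pSTAT5 and total STAT5 in lysates were measured by MSD immunoassay.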

For a further assay, the target named is JAK2 (Homo sapiens (Human), UniProt O60674). Briefly: JAK2 radioactive kinase assay. It is filed as biochemical. To be noted: ATP 10 μM. The method in brief:
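Radiometric assay in Hepes pH 7.5, MgCl2, EGTA, Brij35, BSA, DTT, 1% DMSO, with 10 μM [33P]ATP, 120 min at room temp; P81 paper capture and counting. […]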

The subject of assay [2] is Tyk2-pSTAT4 (IL-12 induced pSTAT4). Briefly: IL-12 induced pSTAT4 in human PBMC. It is filed as cell-based. To be noted: 1.7 ng/mL IL-12, 30 minutes. In a few lines: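 pSTAT4 and total STAT4 quantified by MSD in cell lysates after 30 minutes of 1.7 ng/mL IL-12 stimulation. Beforehand, compound (0.1% DMSO final) sat 1 hr at 37 C on 200,000 thawed buffy-coat PBMC per well in serum-containing medium.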

In another assay the target is TYK2 (Homo sapiens (Human), UniProt P29597). Put plainly: Tyk2 radioactive kinase assay. Format: biochemical. To be noted: ATP 10 μM. The method in brief: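 Recombinant human TYK2 (Invitrogen) was mixed with 20 μM peptide substrate in a buffer of 20 mM Hepes pH 7.5, 10 mM MgCl2, 1 mM EGTA, 0.02% Brij35, 0.02 mg/mL BSA, 0.1 mM […], 2 mM DTT and 1% DMSO, and compounds in DMSO were added. Adding ^33P-ATP (10 μM ATP) started the reaction, which ran 120 min at room temperature. Mixtures were then spotted onto P81 ion-exchange paper, washed thoroughly in 0.75% phosphoric acid, and counted for radioactivity.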
Chain of TYK2 (P29597 whole entry): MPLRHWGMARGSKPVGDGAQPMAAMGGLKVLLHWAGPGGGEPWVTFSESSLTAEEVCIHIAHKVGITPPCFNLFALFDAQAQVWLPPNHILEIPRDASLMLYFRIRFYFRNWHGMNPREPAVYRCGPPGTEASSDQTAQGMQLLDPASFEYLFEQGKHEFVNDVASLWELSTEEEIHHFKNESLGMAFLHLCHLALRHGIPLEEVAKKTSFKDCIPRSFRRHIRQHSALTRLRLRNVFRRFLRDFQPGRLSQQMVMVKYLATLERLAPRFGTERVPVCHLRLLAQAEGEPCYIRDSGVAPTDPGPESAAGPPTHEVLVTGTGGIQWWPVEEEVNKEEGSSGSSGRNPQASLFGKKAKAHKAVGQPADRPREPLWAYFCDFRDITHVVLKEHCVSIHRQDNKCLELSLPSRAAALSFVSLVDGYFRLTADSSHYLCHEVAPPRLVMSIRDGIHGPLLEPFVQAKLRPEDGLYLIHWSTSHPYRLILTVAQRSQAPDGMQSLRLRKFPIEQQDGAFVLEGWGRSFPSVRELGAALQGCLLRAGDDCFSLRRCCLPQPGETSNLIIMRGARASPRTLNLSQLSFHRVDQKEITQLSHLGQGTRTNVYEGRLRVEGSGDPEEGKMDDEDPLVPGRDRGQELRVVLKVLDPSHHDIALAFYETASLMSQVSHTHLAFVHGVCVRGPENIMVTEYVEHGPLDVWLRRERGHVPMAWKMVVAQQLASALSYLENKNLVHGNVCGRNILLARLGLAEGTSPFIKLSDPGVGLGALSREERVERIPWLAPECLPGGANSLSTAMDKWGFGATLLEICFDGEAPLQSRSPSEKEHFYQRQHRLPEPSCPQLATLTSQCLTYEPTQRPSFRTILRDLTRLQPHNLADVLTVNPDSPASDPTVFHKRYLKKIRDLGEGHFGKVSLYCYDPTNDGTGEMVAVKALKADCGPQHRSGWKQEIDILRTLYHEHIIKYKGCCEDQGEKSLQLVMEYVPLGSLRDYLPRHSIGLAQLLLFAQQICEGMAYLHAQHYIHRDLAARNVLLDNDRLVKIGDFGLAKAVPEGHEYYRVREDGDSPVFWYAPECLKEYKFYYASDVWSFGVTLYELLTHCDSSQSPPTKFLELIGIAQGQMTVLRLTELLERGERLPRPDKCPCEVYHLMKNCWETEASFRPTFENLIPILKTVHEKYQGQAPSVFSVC

Chain of JAK2 (O60674 whole entry): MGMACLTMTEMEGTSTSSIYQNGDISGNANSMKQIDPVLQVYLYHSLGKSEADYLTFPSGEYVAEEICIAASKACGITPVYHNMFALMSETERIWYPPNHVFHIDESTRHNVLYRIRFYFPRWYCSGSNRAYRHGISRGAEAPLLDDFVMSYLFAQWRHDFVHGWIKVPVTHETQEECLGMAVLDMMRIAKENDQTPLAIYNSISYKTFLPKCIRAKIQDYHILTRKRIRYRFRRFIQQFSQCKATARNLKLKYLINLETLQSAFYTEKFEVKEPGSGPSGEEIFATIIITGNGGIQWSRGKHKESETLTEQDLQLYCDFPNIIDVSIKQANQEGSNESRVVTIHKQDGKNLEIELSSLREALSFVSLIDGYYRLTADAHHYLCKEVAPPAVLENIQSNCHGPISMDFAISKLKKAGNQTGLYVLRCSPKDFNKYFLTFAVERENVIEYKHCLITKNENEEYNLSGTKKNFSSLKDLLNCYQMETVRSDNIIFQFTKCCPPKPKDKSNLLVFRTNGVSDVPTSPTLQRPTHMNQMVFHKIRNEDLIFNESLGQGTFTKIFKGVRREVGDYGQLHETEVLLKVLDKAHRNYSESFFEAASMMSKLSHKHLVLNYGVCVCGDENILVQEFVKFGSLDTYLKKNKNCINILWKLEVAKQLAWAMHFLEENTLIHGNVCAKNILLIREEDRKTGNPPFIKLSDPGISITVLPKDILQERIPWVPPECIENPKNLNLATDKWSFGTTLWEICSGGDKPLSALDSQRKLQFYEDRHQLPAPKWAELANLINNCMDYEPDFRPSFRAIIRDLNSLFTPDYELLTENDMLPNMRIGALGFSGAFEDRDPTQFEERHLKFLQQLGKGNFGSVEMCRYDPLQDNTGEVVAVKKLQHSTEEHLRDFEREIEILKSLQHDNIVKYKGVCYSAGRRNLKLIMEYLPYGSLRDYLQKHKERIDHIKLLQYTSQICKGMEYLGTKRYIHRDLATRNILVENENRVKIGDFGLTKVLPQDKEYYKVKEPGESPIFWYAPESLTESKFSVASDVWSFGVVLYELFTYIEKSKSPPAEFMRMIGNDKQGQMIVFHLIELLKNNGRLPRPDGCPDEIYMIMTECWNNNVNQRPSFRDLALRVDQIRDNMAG

Broadly, the pEC50 is the EC50 on a negative log10 scale, so that one unit is a factor of ten. For orientation: pKi means the negative decadic logarithm of the Ki, by convention in mol/L. `[2H]C1([2H])NC(=O)c2c(-n3ccc(N4C([2H])([2H])C[C@](O)(C([2H])([2H])[2H])C4([2H])[2H])n3)cc(-c3c(F)cccc3C#N)nc21` [I-207, (R)-3-fluoro-2-(4-(3-(3-hydroxy-3-(methyl-d3)pyrrolidin-1-yl-2,2,5,5-d4)-1H-pyrazol-1-yl)-5-oxo-6,7-dihydro-5H-pyrrolo[3,4-b]pyridin-2-yl-7,7-d2)benzonitrile]: the pEC50 was 5.70 to 7.00 in assay [1] (Homo sapiens, PBMC, 20 min) and 7.00 to 7.52 in assay [2] (Homo sapiens, PBMC, 0.5 h). In addition, the pKi is 7.00 to 8.00 on JAK2 and 8.00 to 10.00 at TYK2.

As for `[2H]C1([2H])N(c2ccn(-c3cc(-c4c(F)cccc4C#N)nc4c3C(=O)NC4)n2)C([2H])([2H])[C@]([2H])(O)C1([2H])[2H]` [I-208, (R)-3-fluoro-2-(4-(3-(3-hydroxypyrrolidin-1-yl-2,2,3,4,4,5,5-d7)-1H-pyrazol-1-yl)-5-oxo-6,7-dihydro-5H-pyrrolo[3,4-b]pyridin-2-yl)benzonitrile], the pEC50 in assay [1] (Homo sapiens, PBMC, 20 min) is below 5.70; in assay [2] (Homo sapiens, PBMC, 0.5 h) it was 5.70 to 7.00. In addition, the pKi is 7.00 to 8.00 at JAK2 and 8.00 to 10.00 at TYK2.

Regarding `[2H]C1([2H])N(c2ccn(-c3cc(-c4c(F)cccc4C#N)nc4c3C(=O)NC4)n2)C([2H])([2H])[C@@]([2H])(O)C1([2H])[2H]` [I-209, (S)-3-fluoro-2-(4-(3-(3-hydroxypyrrolidin-1-yl-2,2,3,4,4,5,5-d7)-1H-pyrazol-1-yl)-5-oxo-6,7-dihydro-5H-pyrrolo[3,4-b]pyridin-2-yl)benzonitrile], the pEC50 was below 5.70 in assay [1] (Homo sapiens, PBMC, 20 min) and 5.70 to 7.00 in assay [2] (Homo sapiens, PBMC, 0.5 h). In addition, the pKi is 7.00 to 8.00 at JAK2 and 8.00 to 10.00 on TYK2.

Regarding `CO[C@H]1CCN(c2ccn(-c3cc(-c4c(F)cccc4C#N)nc4c3C(=O)NC4)n2)C[C@@H]1O` [I-210, 3-fluoro-2-(4-(3-((3S,4S)-3-hydroxy-4-methoxypiperidin-1-yl)-1H-pyrazol-1-yl)-5-oxo-6,7-dihydro-5H-pyrrolo[3,4-b]pyridin-2-yl)benzonitrile], the negative-log EC50 (pEC50) is 5.70 to 7.00 in assay [1] (Homo sapiens, PBMC, 20 min) and 7.00 to 7.52 in assay [2] (Homo sapiens, PBMC, 0.5 h). Besides, the pKi is 7.00 to 8.00 at JAK2 and 8.00 to 10.00 on TYK2.

Consider `CO[C@@H]1CCN(c2ccn(-c3cc(-c4c(F)cccc4C#N)nc4c3C(=O)NC4)n2)C[C@H]1O` [I-211, 3-fluoro-2-(4-(3-((3R,4R)-3-hydroxy-4-methoxypiperidin-1-yl)-1H-pyrazol-1-yl)-5-oxo-6,7-dihydro-5H-pyrrolo[3,4-b]pyridin-2-yl)benzonitrile], for which the pEC50 in assay [1] (20 minutes) was below 5.70; in assay [2], 5.70 to 7.00. Besides, the pKi on JAK2 was 7.00 to 8.00; on TYK2, 8.00 to 10.00.

For the compound `CC(=O)Nc1ccn(-c2cc(-c3c(F)cccc3C#N)nc3c2C(=O)NC3)n1` [I-212, N-(1-(2-(2-cyano-6-fluorophenyl)-5-oxo-6,7-dihydro-5H-pyrrolo[3,4-b]pyridin-4-yl)-1H-pyrazol-3-yl)acetamide], the pEC50 is below 5.70 in assay [1] (Homo sapiens, PBMC, 20 min) and 5.70 to 7.00 in assay [2] (Homo sapiens, PBMC, 0.5 h). For the same compound, the pKi is 6.00 to 7.00 at JAK2 and 8.00 to 10.00 on TYK2.

For `CO[C@@H]1CCN(c2ccn(-c3cc(-c4c(F)cccc4C#N)nc4c3C(=O)NC4)n2)C[C@]1(C)O` [I-213, 3-fluoro-2-(4-(3-((3S,4R)-3-hydroxy-4-methoxy-3-methylpiperidin-1-yl)-1H-pyrazol-1-yl)-5-oxo-6,7-dihydro-5H-pyrrolo[3,4-b]pyridin-2-yl)benzonitrile], the pEC50 is below 5.70 in assay [1] (20 minutes) and 5.70 to 7.00 in assay [2] (Homo sapiens, PBMC, 0.5 h). Besides, the pKi on JAK2 is 7.00 to 8.00; at TYK2, 10.00 to 11.05.

Regarding `N#Cc1cccc(F)c1-c1cc(-n2ccc(N3C[C@H](O)C[C@H]3CO)n2)c2c(n1)CNC2=O` [I-214, 3-fluoro-2-(4-(3-((2S,4R)-4-hydroxy-2-(hydroxymethyl)pyro-lidin-1-yl)-1H-pyrazol-1-yl)-5-oxo-6,7-dihydro-5H-pyrrolo[3,4-b]pyridin-2-yl)benzonitrile], the pEC50 in assay [1] (Homo sapiens, PBMC, 20 min) is below 5.70; in assay [2] (Homo sapiens, PBMC, 0.5 h), 5.70 to 7.00. The pKi on JAK2 is 7.00 to 8.00; at TYK2, 8.00 to 10.00.

Turning to `N#Cc1cccc(F)c1-c1cc(-n2ccc(N3CC[C@H](C#N)[C@@H](O)C3)n2)c2c(n1)CNC2=O` [I-215, (3R,4R)-1-(1-(2-(2-cyano-6-fluorophenyl)-5-oxo-6,7-dihydro-5H-pyrrolo[3,4-b]pyridin-4-yl)-1H-pyrazol-3-yl)-3-hydroxypiperidine-4-carbonitrile], the pEC50 in assay [1] (Homo sapiens, PBMC, 20 min) is 5.70 to 7.00; in assay [2] it was 5.70 to 7.00. Moreover, the pKi at JAK2 was 7.00 to 8.00; at TYK2, 8.00 to 10.00.

As to `N#Cc1cccc(F)c1-c1cc(-n2ccc(N3CC[C@H](C#N)[C@@H](O)C3)n2)c2c(n1)CNC2=O` [I-216, (3R,4R)-1-(1-(2-(2-cyano-6-fluorophenyl)-5-oxo-6,7-dihydro-5H-pyrrolo[3,4-b]pyridin-4-yl)-1H-pyrazol-3-yl)-3-hydroxypiperidine-4-carbonitrile], the results for the pEC50 in assay [1] (20 minutes) and in assay [2] were 5.70 to 7.00 and 7.00 to 7.52, respectively. Further, the pKi at JAK2 and at TYK2 was 8.00 to 10.00 throughout.

With `N#Cc1cccc(F)c1-c1cc(-n2ccc(N3CC[C@@H](C#N)[C@H](O)C3)n2)c2c(n1)CNC2=O` [I-217, (3S,4S)-1-(1-(2-(2-cyano-6-fluorophenyl)-5-oxo-6,7-dihydro-5H-pyrrolo[3,4-b]pyridin-4-yl)-1H-pyrazol-3-yl)-3-hydroxypiperidine-4-carbonitrile], the pEC50 was 5.70 to 7.00 in assay [1] (Homo sapiens, PBMC, 20 min) and 7.00 to 7.52 in assay [2] (Homo sapiens, PBMC, 0.5 h). Moreover, the pKi on JAK2 and on TYK2 was 8.00 to 10.00 throughout.

`N#Cc1cccc(F)c1-c1cc(-n2ccc(N3CC[C@@H](O)[C@@H](N4CCOCC4)C3)n2)c2c(n1)CNC2=O` [I-218, 3-fluoro-2-(4-(3-((3S,4R)-4-hydroxy-3-morpholinopiperidin-1-yl)-1H-pyrazol-1-yl)-5-oxo-6,7-dihydro-5H-pyrrolo[3,4-b]pyridin-2-yl)benzonitrile]: the pEC50 is 5.70 to 7.00 in assay [1] (Homo sapiens, PBMC, 20 min) and 5.70 to 7.00 in assay [2] (Homo sapiens, PBMC, 0.5 h). Besides, the pKi at JAK2 is 7.00 to 8.00; on TYK2, 8.00 to 10.00.

With `CC1(O)CN(c2ccn(-c3cc(-c4c(F)cccc4C#N)nc4c3C(=O)NC4)n2)CCC1F` (stereo not drawn) [I-219, 3-fluoro-2-(4-(3-(4-fluoro-3-hydroxy-3-methylpiperidin-1-yl)-1H-pyrazol-1-yl)-5-oxo-6,7-dihydro-5H-pyrrolo[3,4-b]pyridin-2-yl)benzonitrile], the pEC50 is 5.70 to 7.00 in assay [1] (Homo sapiens, PBMC, 20 min) and 5.70 to 7.00 in assay [2] (Homo sapiens, PBMC, 0.5 h). Further, the pKi is 7.00 to 8.00 at JAK2 and 8.00 to 10.00 on TYK2.

As for `[2H]C1([2H])N(c2ccn(-c3cc(-c4c(F)cccc4C#N)nc4c3C(=O)NC4)n2)C([2H])([2H])[C@](C)(O)C([2H])([2H])C1([2H])[2H]` [I-220, (R)-3-fluoro-2-(4-(3-(3-hydroxy-3-methylpiperidin-1-yl-2,2,4,4,5,5,6,6-d8)-1H-pyrazol-1-yl)-5-oxo-6,7-dihydro-5H-pyrrolo[3,4-b]pyridin-2-yl)benzonitrile], the pEC50 was below 5.70 in assay [1] (Homo sapiens, PBMC, 20 min) and 5.70 to 7.00 in assay [2] (Homo sapiens, PBMC, 0.5 h). Further, the pKi is 7.00 to 8.00 on JAK2 and 8.00 to 10.00 at TYK2.

`N#Cc1cccc(F)c1-c1cc(-n2ccc(N3CC[C@]4(C3)OC[C@H](O)CO4)n2)c2c(n1)CNC2=O` [I-221, 3-fluoro-2-(4-(3-((5r,8r)-8-hydroxy-6,10-dioxa-2-azaspiro-[4.5]decan-2-yl)-1H-pyrazol-1-yl)-5-oxo-6,7-dihydro-5H-pyrrolo[3,4-b]pyridin-2-yl)benzonitrile]: the pEC50 in assay [1] (Homo sapiens, PBMC, 20 min) was 5.70 to 7.00; in assay [2] (Homo sapiens, PBMC, 0.5 h), 5.70 to 7.00. For the same compound, the pKi at JAK2 and at TYK2 was 8.00 to 10.00 throughout.

With `[2H]C([2H])([2H])O[C@@H]1CN(c2ccn(-c3cc(-c4c(F)cccc4C#N)nc4c3C(=O)NC4)n2)C[C@@H]1O` [I-223, 3-fluoro-2-(4-(3-((3S,4R)-3-hydroxy-4-(methoxy-d3)pyrrolidin-1-yl)-1H-pyrazol-1-yl)-5-oxo-6,7-dihydro-5H-pyrrolo[3,4-b]pyridin-2-yl)benzonitrile], the pEC50 is 5.70 to 7.00 in assay [1] (Homo sapiens, PBMC, 20 min) and 5.70 to 7.00 in assay [2] (Homo sapiens, PBMC, 0.5 h). For the same compound, the figures for the pKi on JAK2 and on TYK2 were 7.00 to 8.00 and 8.00 to 10.00, respectively.

Turning to `[2H]C([2H])([2H])O[C@H]1CN(c2ccn(-c3cc(-c4c(F)cccc4C#N)nc4c3C(=O)NC4)n2)C[C@H]1O` [I-224, 3-fluoro-2-(4-(3-((3R,4S)-3-hydroxy-4-(methoxy-d3)pyrrolidin-1-yl)-1H-pyrazol-1-yl)-5-oxo-6,7-dihydro-5H-pyrrolo[3,4-b]pyridin-2-yl)benzonitrile], the pEC50 was 5.70 to 7.00 in assay [1] (Homo sapiens, PBMC, 20 min) and 7.00 to 7.52 in assay [2] (Homo sapiens, PBMC, 0.5 h). The pKi on JAK2 was 7.00 to 8.00; on TYK2, 8.00 to 10.00.

With `CN1CCO[C@@H]2CN(c3ccn(-c4cc(-c5c(F)cccc5C#N)nc5c4C(=O)NC5)n3)C[C@@H]21` [I-225, 3-fluoro-2-(4-(3-((4aS,7aR)-4-methylhexahydropyrrolo[3,4-b][1,4]oxazin-6 (2H)-yl)-1H-pyrazol-1-yl)-5-oxo-6,7-dihydro-5H-pyrrolo[3,4-b]pyridin-2-yl)benzonitrile], the negative logarithm of the EC50 (pEC50) in assay [1] (Homo sapiens, PBMC, 20 min) was 5.70 to 7.00; in assay [2] (Homo sapiens, PBMC, 0.5 h), 5.70 to 7.00. Further, the pKi on JAK2 and at TYK2 was 8.00 to 10.00 each time.
